In PubChem BioAssay (NCI):
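Test compounds were applied to cells in 96-well plates for 48 hours at 5 doses. GI50 = concentration required for 50% inhibition of growth. Definition used: TGI = concentration required for complete inhibition of growth.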

Tests used:
Experiment in all cases: NCI tumour cell line growth inhibition, 48 h
[1] = test system: SK-OV-3 ovarian
[2] = test system: SR leukemia
[3] = test system: OVCAR-4 ovarian
[4] = test system: M14 melanoma
[5] = test system: ACHN renal
[6] = test system: T-47D breast
[7] = test system: UO-31 renal
[8] = test system: SK-MEL-5 melanoma
[9] = test system: A498 renal
[10] = test system: SNB-19 CNS

SMILES | TGI [1] [µM] | TGI [2] [µM] | TGI [3] [µM] | TGI [4] [µM] | TGI [5] [µM] | TGI [6] [µM] | TGI [7] [µM] | TGI [8] [µM] | TGI [9] [µM] | TGI [10] [µM] | GI50 [1] [µM] | GI50 [2] [µM] | GI50 [3] [µM] | GI50 [4] [µM] | GI50 [5] [µM] | GI50 [6] [µM] | GI50 [7] [µM] | GI50 [8] [µM] | GI50 [9] [µM] | GI50 [10] [µM]
Cc1oc(N)c(S(=O)(=O)/C(C#N)=C/c2ccccc2[N+](=O)[O-])c1C | > 100 | 40.2 | > 100 | 41.4 | > 100 | 66.8 | 30.6 | 38.1 | > 100 | 77.4 | – | – | – | – | – | – | – | – | – | –
COc1ccc(-c2csc3c2[N+]2(C)C=CC=C2C3N2CCCC2)cc1 (configuration not stated) | > 100 | 35.4 | > 100 | > 100 | > 100 | 76.1 | > 100 | 28.8 | > 100 | > 100 | – | – | – | – | – | – | – | – | – | –
C=CCN1C(=O)C[C@H](Cc2ccccc2)NC(=O)C[C@H](Cc2ccccc2)N(CC=C)C(=O)C[C@H](Cc2ccccc2)NC(=O)C[C@@H]1Cc1ccccc1 | > 100 | > 100 | 72 | > 100 | – | > 100 | > 100 | > 100 | > 100 | > 100 | – | – | – | – | – | – | – | – | – | –
CC(C)(C)N=C1C(=O)C2(C)CCC1C2(C)C (configuration not stated) | > 100 | > 100 | > 100 | > 100 | > 100 | > 100 | > 100 | > 100 | 41.2 | > 100 | – | – | – | – | – | – | – | – | – | –
Oc1ccc(Nc2nc(Cl)c3[nH]cnc3n2)cc1 | > 100 | > 100 | > 100 | > 100 | > 100 | > 100 | > 100 | > 100 | > 100 | > 100 | – | – | – | – | – | – | – | – | – | –
C[C@]12CC[C@H]3[C@@H](CC=C4C[C@@H](O)CC[C@@]43C)[C@@H]1C/C(=C\c1ccc([N+](=O)[O-])cc1)[C@@H]2O | 28.1 | > 100 | 3.7 | > 100 | 24.4 | 29.5 | 24.4 | 23.2 | 42.4 | 38.7 | – | – | – | – | – | – | – | – | – | –
COC1OC(C)/C(=N/O)C2OC(C)(C)OC12 (configuration not stated) | > 100 | > 100 | > 100 | > 100 | > 100 | > 100 | > 100 | > 100 | > 100 | > 100 | – | – | – | – | – | – | – | – | – | –
Clc1cc(Cl)nc(Nc2ccc3c(c2)CCC3)n1 | > 100 | 77.6 | > 100 | > 100 | > 100 | > 100 | > 100 | 57.5 | > 100 | > 100 | – | – | – | – | – | – | – | – | – | –
CCOC(=O)c1c(SC(=O)c2ccc(Cl)cc2)n(-c2ccccc2)c(=S)n(-c2ccccc2)c1=O | > 100 | > 100 | > 100 | > 100 | > 100 | > 100 | – | – | > 100 | > 100 | – | – | – | – | – | – | – | – | – | –
COC(=O)CCCc1nc2ccccc2nc1N=Nc1ccccc1 | > 100 | 72.7 | > 100 | 76.7 | > 100 | > 100 | > 100 | > 100 | > 100 | > 100 | – | – | – | – | – | – | – | – | – | –
O=C(NCc1cn(Cc2cccc(Oc3ccccc3)c2)nn1)c1cccnc1NCc1ccc(Cl)cc1 | 69.2 | > 100 | > 100 | 5.7 | > 100 | 42.9 | > 100 | 7.4 | 7.95 | > 100 | 3.32 | 3.31 | 3.37 | 2.49 | 4.03 | 3.2 | 3 | 2.53 | 2.12 | 3.91
Cc1cccc(NC(=S)Nc2cccc(Cl)c2)n1 | 98.6 | > 100 | > 100 | > 100 | > 100 | > 100 | > 100 | > 100 | > 100 | > 100 | – | – | – | – | – | – | – | – | – | –
COc1ccc(N=C(C)C(C)=Nc2ccc(OC)cc2)cc1 | > 100 | > 100 | > 100 | > 100 | > 100 | > 100 | > 100 | > 100 | > 100 | > 100 | – | – | – | – | – | – | – | – | – | –
CC(=O)N1CCOC12N=NC(C)(C)O2 (configuration not stated) | > 100 | > 100 | > 100 | > 100 | > 100 | > 100 | > 100 | > 100 | > 100 | > 100 | – | – | – | – | – | – | – | – | – | –
O=[N+]([O-])/C(Cl)=C(\NCCO)C(Cl)=C(Cl)Cl | > 100 | 49.2 | > 100 | 77.5 | > 100 | 99.8 | > 86.4 | > 100 | > 100 | > 100 | – | – | – | – | – | – | – | – | – | –
CC1=NN(c2ccccc2)C(=O)/C1=C\c1c(C)[nH]n(-c2ccccc2)c1=O | > 100 | > 100 | > 100 | > 100 | > 100 | > 100 | > 100 | > 100 | > 100 | > 100 | – | – | – | – | – | – | – | – | – | –
